Laboratory results reported in publication PMC6994307 (Current Therapeutic Research, Clinical and Experimental, 2019).
“Also recorded” adds a separate entry of the source. Like-named read-outs stand apart in the source and are kept apart here.

Assays:
human CB1 receptor [1] = biological target: T1, human CB1 receptor (Homo sapiens, UniProt P21554); assay type: binding; settings: for Effect on binding of agonist CP55,940 (in words): [3H]CP55,940 tracer, modulator 1 nM–10 µM
human CB1 receptor [2] = biological target: T1, human CB1 receptor; assay type: binding; settings: for cooperativity factor: [3H]SR141716A (1 nM) as orthosteric inverse agonist; for Effect on SR141716A binding (in words): [3H]SR141716A tracer, modulator 1 nM–10 µM
[3] = Computational prediction of physicochemical properties and solubility
CB1 [4] = settings: CP55,940 as the tracer; cited from earlier work
CB1 [5] = settings: cited from earlier work
rats = settings: cited from earlier work
CB1 [6] = settings: cited from earlier work; remark: listed apart in the source
CB1 [7] = settings: cited from earlier work; remark: listed apart in the source
[8] = read-out: KB (equilibrium dissociation), [3H]CP55,940 (0.5 nM) as orthosteric ligand, 95% CI in parentheses, NB = no detectable binding with test compound up to 10 µM
[9] = on introducing ethanolamine into LDK1321 (6a) and LDK1324 (6b)

T1 sequence (P21554 whole entry): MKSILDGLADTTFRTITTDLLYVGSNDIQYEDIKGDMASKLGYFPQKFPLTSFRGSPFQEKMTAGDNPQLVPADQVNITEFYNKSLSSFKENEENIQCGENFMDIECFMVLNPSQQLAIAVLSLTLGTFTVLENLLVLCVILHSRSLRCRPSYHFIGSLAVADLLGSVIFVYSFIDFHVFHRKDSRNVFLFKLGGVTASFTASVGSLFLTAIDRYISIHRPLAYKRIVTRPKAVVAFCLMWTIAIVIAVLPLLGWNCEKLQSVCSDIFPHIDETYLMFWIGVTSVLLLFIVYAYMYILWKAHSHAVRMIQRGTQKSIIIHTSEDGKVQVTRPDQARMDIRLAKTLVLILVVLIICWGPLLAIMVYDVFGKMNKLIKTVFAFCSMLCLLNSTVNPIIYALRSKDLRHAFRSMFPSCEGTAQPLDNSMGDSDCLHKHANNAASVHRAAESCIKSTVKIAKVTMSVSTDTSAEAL

SMILES	Kb (human CB1 receptor [1])	cooperativity factor (human CB1 receptor [2])	Effect on SR141716A binding (in words) (human CB1 receptor [2])	Kb (human CB1 receptor [1]; [8])	Effect on binding of agonist CP55,940 (in words) (human CB1 receptor [1])	further results
N#Cc1ccc(NC(=O)Nc2cccc(-c3cccc(Cl)n3)c2)cc1 [LDK1324, 1-(3-(6-Chloropyridin-2-yl)phenyl)-3-(4-cyanophenyl)urea]	300 nM	< 1	robust, dose-dependent decrease			Effect on binding of agonist CP55,940 (in words) (human CB1 receptor [1]; listed as LDK1324 (6b)): enhanced the binding of agonist CP55,940 to some degree
N#Cc1ccc(NC(=O)Nc2cccc(-c3cccc(NCCO)n3)c2)cc1 [LDK1325, 1-(4-Cyanophenyl)-3-(3-(6-((2-hydroxyethyl)amino)pyridin-2-yl)phenyl)urea]				> 10000 nM		Effect on binding of agonist CP55,940 (in words) (human CB1 receptor [1]; listed as LDK1325 (8b)): no binding; also recorded: lost its binding affinity; Enhancement of calculated intrinsic solubility [3, 9]: approximately 20 fold
N#Cc1ccc(NC(=O)Nc2ccc3[nH]ccc3c2)cc1 [LDK1318, 1-(4-Cyanophenyl)-3-(1H-indol-5-yl)urea]				> 10000 nM	no binding	
N#Cc1ccc(NC(=O)Nc2ccc3cc[nH]c3c2)cc1 [LDK1319, 1-(4-Cyanophenyl)-3-(1H-indol-6-yl)urea]				> 10000 nM	no binding	
N#Cc1ccc(NC(=O)Nc2cccc(-c3cccc(N4CCCC4)n3)c2)cc1						EC50 (CB1 [4]): 55 nM
CC(=O)Nc1cccc(NC(=O)Nc2ccc(C#N)cc2)c1 [LDK1317, N-(3-(3-(4-Cyanophenyl)ureido)phenyl)acetamide]	110 nM				enhanced the binding of agonist CP55,940 to some degree	
N#Cc1ccc(NC(=O)Nc2cccc(-c3ccnc(NCCO)n3)c2)cc1 [LDK1323, 1-(4-Cyanophenyl)-3-(3-(2-((2-hydroxyethyl)amino)pyrimidin-4-yl)phenyl)urea]	200 nM	< 1	modest decrease			Effect on binding of agonist CP55,940 (in words) (human CB1 receptor [1]; listed as LDK1323 (8a)): enhanced the binding of agonist CP55,940 to some degree; also recorded: modest, but positive influence; Enhancement of calculated intrinsic solubility [3, 9]: approximately 20 fold
CN(C)c1ccc(NC(=O)Nc2ccc(C#N)cc2)cc1 [LDK1320, 1-(4-Cyanophenyl)-3-(4-(dimethylamino)phenyl)urea]	830 nM					Effect on binding of agonist CP55,940 (in words) (human CB1 receptor [1]; listed as LDK1320 (12b)): enhanced the binding of agonist CP55,940 to some degree; Enhancement of calculated intrinsic solubility ([3]; vs PSNCBAM-1, on reducing the number of rings to 2): about 400 fold
N#Cc1ccc(NC(=O)Nc2cccc(-c3ccnc(Cl)n3)c2)cc1 [LDK1321, 1-(3-(2-Chloropyrimidin-4-yl)phenyl)-3-(4-cyanophenyl)urea]	85 nM	< 1	robust, dose-dependent decrease			Effect on binding of agonist CP55,940 (in words) (human CB1 receptor [1]; listed as LDK1321 (6a)): enhanced the binding of agonist CP55,940 to some degree; also recorded: successful in enhancing the binding of agonist CP55,940
O=C(Nc1ccc(Cl)cc1)Nc1cccc(-c2cccc(N3CCCC3)n2)c1 [PSNCBAM-1, 1-(4-Chlorophenyl)-3-{3-[6-(pyrrolidin-1-yl)pyridin-2-yl]phenyl} urea]						Effect in GTPγS assay (CB1 [5]): noncompetitive, inhibitory effects; Food intake and body weight (rats): reduced food intake and body weight; Effect in cAMP assay (CB1 [6]): noncompetitive, inhibitory effects; Effect on binding of the CB1 agonist CP55,940 (CB1 [7]): enhanced binding; Effect on binding of the inverse agonist SR141716A (CB1 [7]): reducing the binding
